According to PubChem BioAssay (NCI):
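Cultured in 96-well plates, cells were exposed to test compound for 48 hours across five concentrations. GI50 = concentration required for 50% inhibition of growth. TGI: concentration producing complete growth inhibition.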

Key:
Assay in all cases: NCI-60 cell line screen, 48 h; in the data active means GI50 below about 0.43 µM; inactive means the rest
[1] = system: SK-MEL-28 melanoma
[2] = system: T-47D breast
[3] = system: COLO 205 colon
[4] = system: MDA-MB-231 breast
[5] = system: K-562 leukemia
[6] = system: TK-10 renal
[7] = system: SNB-19 CNS
[8] = system: EKVX NSCLC
[9] = system: SF-295 CNS
[10] = system: SR leukemia
[11] = system: A498 renal
[12] = system: NCI/ADR-RES ovarian
[13] = system: SK-MEL-2 melanoma
[14] = system: PC-3 prostate
[15] = system: HT29 colon
[16] = system: KM12 colon
[17] = system: MOLT-4 leukemia
[18] = system: NCI-H460 lung
[19] = system: OVCAR-3 ovarian
[20] = system: SK-MEL-5 melanoma
[21] = system: BT-549 breast
[22] = system: HL-60(TB) leukemia
[23] = system: SW-620 colon
[24] = system: U251 CNS
[25] = system: SK-OV-3 ovarian
[26] = system: HCC-2998 colon
[27] = system: 786-0 renal
[28] = system: RPMI-8226 leukemia
[29] = system: NCI-H23 lung
[30] = system: CAKI-1 renal
[31] = system: UACC-257 melanoma
[32] = system: SN12C renal
[33] = system: OVCAR-4 ovarian
[34] = system: CCRF-CEM leukemia
[35] = system: OVCAR-8 ovarian
[36] = system: HCT-116 colon
[37] = system: SF-539 CNS
[38] = system: LOX IMVI melanoma
[39] = system: UACC-62 melanoma
[40] = system: UO-31 renal
[41] = system: SF-268 CNS
[42] = system: HS 578T breast
[43] = system: ACHN renal
[44] = system: HOP-92 NSCLC
[45] = system: RXF 393 renal
[46] = system: MALME-3M melanoma
[47] = system: NCI-H522 lung
[48] = system: DU-145 prostate
[49] = system: OVCAR-5 ovarian
[50] = system: NCI-H226 lung
[51] = system: MCF7 breast
[52] = system: M14 melanoma
[53] = system: A549 NSCLC
[54] = system: SNB-75 CNS
[55] = system: HCT-15 colon
[56] = system: HOP-62 NSCLC
[57] = system: MDA-MB-435
[58] = system: IGROV1 ovarian

C=CCCCOC1[C@H](OCc2ccccc2)C(OCc2ccccc2)C(OC)O[C@@H]1CNC(=O)c1cccc(I)c1 (stereo partly specified)
> 100 µM: TGI [1] | TGI [2] | TGI [3] | TGI [4] | TGI [5] | TGI [6] | TGI [7] | TGI [8] | TGI [9] | TGI [12] | TGI [13] | TGI [14] | TGI [15] | TGI [16] | TGI [17] | TGI [19] | TGI [21] | TGI [23] | TGI [24] | TGI [25] | TGI [26] | TGI [27] | TGI [29] | TGI [30] | TGI [31] | TGI [32] | TGI [33] | TGI [34] | TGI [35] | TGI [36] | TGI [38] | TGI [39] | TGI [40] | TGI [41] | TGI [42] | TGI [43] | TGI [44] | TGI [45] | TGI [46] | TGI [47] | TGI [48] | TGI [49] | TGI [50] | TGI [51] | TGI [52] | TGI [53] | TGI [55] | TGI [56] | TGI [57] | TGI [58]
16.2 µM: TGI [20]
76.4 µM: TGI [37]
inactive: GI50 [1] 8.51 µM | GI50 [2] 4.74 µM | GI50 [3] 5.02 µM | GI50 [4] 8.34 µM | GI50 [5] 2.7 µM | GI50 [6] 5.3 µM | GI50 [7] 6.35 µM | GI50 [8] 3.2 µM | GI50 [9] 4.14 µM | GI50 [10] 2.9 µM | GI50 [11] 7.2 µM | GI50 [12] 5.26 µM | GI50 [13] 48.1 µM | GI50 [14] 2.19 µM | GI50 [15] 4.54 µM | GI50 [16] 6.49 µM | GI50 [17] 1.9 µM | GI50 [18] 2.91 µM | GI50 [19] 6.46 µM | GI50 [20] 2.2 µM | GI50 [21] 8.79 µM | GI50 [22] 2.83 µM | GI50 [23] 4.62 µM | GI50 [24] 4.66 µM | GI50 [25] 5.45 µM | GI50 [26] > 100 µM | GI50 [27] 3.78 µM | GI50 [28] 2.57 µM | GI50 [29] 33.6 µM | GI50 [30] 11.5 µM | GI50 [31] 8.82 µM | GI50 [32] 8.53 µM | GI50 [33] 14.4 µM | GI50 [34] 3.55 µM | GI50 [35] 26 µM | GI50 [36] 4.3 µM | GI50 [37] 4.38 µM | GI50 [38] 2.81 µM | GI50 [39] 3.8 µM | GI50 [40] 9.51 µM | GI50 [41] 5.38 µM | GI50 [42] 9.32 µM | GI50 [43] 5.76 µM | GI50 [44] 5.08 µM | GI50 [45] 3.91 µM | GI50 [46] 5.43 µM | GI50 [47] 33 µM | GI50 [48] 8.52 µM | GI50 [49] > 100 µM | GI50 [50] 21.9 µM | GI50 [51] 3.5 µM | GI50 [52] 60.2 µM | GI50 [53] 8.17 µM | GI50 [54] 3.91 µM | GI50 [55] 3.55 µM | GI50 [56] > 100 µM | GI50 [57] 5.31 µM | GI50 [58] 17.7 µM
56.5 µM: TGI [54]
21.3 µM: TGI [22]
8.64 µM: TGI [18]
72.8 µM: TGI [11]
14.6 µM: TGI [10]
9.19 µM: TGI [28]
